According to patent US8080657B2, “Compounds of reverse turn mimetics and the use thereof” (Choongwae Pharma Corporation, priority 2008, dated 2011):

Test system: Wnt signaling
Assay: TopFlash reporter gene bioassay in SW480 cells
Format: cell-based
Settings: Homo sapiens, SW480, TopFlash reporter gene assay, inhibition of Wnt signaling; read-out: RGA, IC50 (μM) TopF

In order of falling IC50:
1. C=CCN1CC(=O)N2[C@@H](Cc3ccc4[nH]ncc4c3)C(=O)N(Cc3cccc4scnc34)C[C@@H]2N1C(=O)NCc1ccccc1 (racemic) [compound 237]  46.7 ± 6.13 µM
2. C=CCN1CC(=O)N2[C@@H](Cc3ccc(O)cc3)C(=O)N(Cc3cccnc3-c3cccnc3)C[C@@H]2N1C(=O)NCc1ccccc1 [compound 198]  22.2 ± 5.69 µM
3. C=CCN1CC(=O)N2[C@@H](Cc3ccc(O)cc3)C(=O)N(Cc3cc(C(C)(C)C)cc(C(C)(C)C)c3)C[C@@H]2N1C(=O)NCc1ccccc1 [compound 163]  15.7 ± 1.87 µM
4. C=CCN1CC(=O)N2[C@@H](Cc3ccc(O)cc3)C(=O)N(Cc3ccc(F)c4scnc34)C[C@@H]2N1C(=O)NCc1ccccc1F [compound 158]  12.5 ± 2.66 µM
5. C=CCN1CC(=O)N2[C@@H](Cc3ccc(O)cc3)C(=O)N(Cc3cccc(-c4ccc[nH]c4=O)c3)C[C@@H]2N1C(=O)NCc1ccccc1 [compound 156]  12.2 ± 2.02 µM
6. C=CCN1CC(=O)N2[C@@H](Cc3ccc(O)cc3)C(=O)N(C/C=C/c3ccccc3)C[C@@H]2N1C(=O)NCc1ccccc1 [compound 149]  10.1 ± 2.38 µM
7. C=CCN1CC(=O)N2[C@@H](Cc3ccc(O)cc3)C(=O)N(Cc3cccc(OC)c3OC)C[C@@H]2N1C(=O)NCc1ccccn1 [compound 262]  8.48 ± 1.37 µM
8. C=CCN1CC(=O)N2[C@@H](Cc3ccc(O)cc3)C(=O)N(Cc3ccc([N+](=O)[O-])c(O)c3)C[C@@H]2N1C(=O)NCc1ccccc1 [compound 259]  7.62 ± 1.89 µM
9. C=CCN1CC(=O)N2[C@@H](Cc3ccc(O)cc3)C(=O)N(Cc3ccc(F)c4scnc34)C[C@@H]2N1C(=O)NCc1ccc(C#N)cc1 [compound 255]  7.17 ± 1.33 µM
10. C=CCN1CC(=O)N2[C@@H](Cc3ccc(O)cc3)C(=O)N(Cc3cccc(OC)c3Oc3cccc(F)c3)C[C@@H]2N1C(=O)NCc1ccccc1 [compound 252]  7.05 ± 0.87 µM
11. C=CCN1CC(=O)N2[C@@H](Cc3ccc(O)cc3)C(=O)N(Cc3cc4c(cc3[N+](=O)[O-])OCO4)C[C@@H]2N1C(=O)NCc1ccccc1 [compound 244]  5.98 ± 1.03 µM
12. C=CCN1CC(=O)N2[C@@H](Cc3ccc(O)cc3)C(=O)N(Cc3cccc(C(=O)N4CC=CC4)c3)C[C@@H]2N1C(=O)NCc1ccccc1 [compound 239]  5.09 ± 1.32 µM
13. C=CCN1CC(=O)N2[C@@H](Cc3ccc(O)cc3)C(=O)N(Cc3cncc(C(=O)OC)c3)C[C@@H]2N1C(=O)NCc1ccccc1 [compound 233]  4.98 ± 0.69 µM
14. CN1CC(=O)N2[C@@H](Cc3ccc(O)cc3)C(=O)N(Cc3cccc4scnc34)C[C@@H]2N1C(=O)NCc1ccccc1 [compound 232]  4.97 ± 0.73 µM
15. C=CCN1CC(=O)N2[C@@H](Cc3ccc(O)cc3)C(=O)N(Cc3ccccc3Sc3ccc(Cl)cc3)C[C@@H]2N1C(=O)NCc1ccccc1 [compound 219]  3.97 ± 0.57 µM
16. C=CCN1CC(=O)N2[C@@H](Cc3ccc(O)cc3)C(=O)N(Cc3cccc(-c4cccnc4)n3)C[C@@H]2N1C(=O)NCc1ccccc1 [compound 217]  3.87 ± 0.45 µM
17. C=CCN1CC(=O)N2[C@@H](Cc3ccc(O)cc3)C(=O)N(Cc3cccc4ccn(Cc5cccc(N)c5)c34)C[C@@H]2N1C(=O)NCc1ccccc1 [compound 213]  3.62 ± 0.65 µM
18. C=CCN1CC(=O)N2[C@@H](Cc3ccc(O)cc3)C(=O)N(Cc3cccc(C(=O)N4CCOCC4)c3)C[C@@H]2N1C(=O)NCc1ccccc1 [compound 212]  3.62 ± 0.63 µM
19. C=CCN1CC(=O)N2[C@@H](Cc3ccc(O)cc3)C(=O)N(Cc3cccc(C(=O)OCC)n3)C[C@@H]2N1C(=O)NCc1ccccc1 [compound 194]  2.89 ± 0.5 µM
20. C=CCN1CC(=O)N2[C@@H](Cc3ccc(O)cc3)C(=O)N(Cc3ccccc3S(C)(=O)=O)C[C@@H]2N1C(=O)NCc1ccccc1 [compound 188]  2.67 ± 0.59 µM
21. C=CCN1CC(=O)N2[C@@H](Cc3ccc(O)cc3)C(=O)N(Cc3cccc4ccn(-c5ccccn5)c34)C[C@@H]2N1C(=O)NCc1ccccc1 [compound 187]  2.67 ± 0.28 µM
22. C=CCN1CC(=O)N2[C@@H](Cc3ccc(O)cc3)C(=O)N(Cc3ccnc(-c4ccccc4)n3)C[C@@H]2N1C(=O)NCc1ccccc1 [compound 176]  2.37 ± 0.22 µM
23. C=CCN1CC(=O)N2[C@@H](Cc3ccc(O)cc3)C(=O)N(Cc3cccc(OC)c3OCCN3CCCCC3)C[C@@H]2N1C(=O)NCc1ccccc1 [compound 173]  2.26 ± 0.16 µM
24. C=CCOc1cccc(CN2C[C@H]3N(C(=O)CN(CC=C)N3C(=O)NCc3ccccc3)[C@@H](Cc3ccc(O)cc3)C2=O)c1 [compound 169]  2.01 ± 0.34 µM
25. C=CCN1CC(=O)N2[C@@H](Cc3ccc(O)cc3)C(=O)N(Cc3cccc(Oc4ccccc4)c3)C[C@@H]2N1C(=O)NCc1ccccc1 [compound 146]  1.99 ± 0.12 µM
26. C=CCN1CC(=O)N2[C@@H](Cc3ccc(ON)cc3)C(=O)N(Cc3ccc(OC)c(Cl)c3)C[C@@H]2N1C(=O)NCc1ccccc1 [compound 147]  1.99 ± 0.32 µM
27. C=CCN1CC(=O)N2[C@@H](Cc3ccc(O)cc3)C(=O)N(Cc3cccc(-c4ccccc4)c3)C[C@@H]2N1C(=O)NCc1ccccc1 [compound 144]  1.94 ± 0.48 µM
28. C=CCN1CC(=O)N2[C@@H](Cc3ccc(O)cc3)C(=O)N(Cc3csc4cc(NC(C)=O)ccc34)C[C@@H]2N1C(=O)NCc1ccccc1 [compound 142]  1.92 ± 0.28 µM
29. C=CCN1CC(=O)N2[C@@H](Cc3ccc(O)cc3)C(=O)N(Cc3cccc(-c4cccc(OC)c4)c3)C[C@@H]2N1C(=O)NCc1ccccc1 [compound 137]  1.86 ± 0.3 µM
30. C=CCN1CC(=O)N2[C@@H](Cc3ccc(O)cc3)C(=O)N(Cc3cccc(C(=O)NCCCOCCCC)c3)C[C@@H]2N1C(=O)NCc1ccccc1 [compound 135]  1.77 ± 0.15 µM
31. C=CCN1CC(=O)N2[C@@H](Cc3ccc(O)cc3)C(=O)N(Cc3cccc(C(=O)NCCC4=CCCCC4)c3)C[C@@H]2N1C(=O)NCc1ccccc1 [compound 130]  1.66 ± 0.18 µM
32. C=CCN1CC(=O)N2[C@@H](Cc3ccc(O)cc3)C(=O)N(Cc3cccc(N(C)C=O)c3)C[C@@H]2N1C(=O)NCc1ccccc1 [compound 113]  1.41 ± 0.38 µM
33. C=CCN1CC(=O)N2[C@@H](Cc3ccc(O)cc3)C(=O)N(Cc3cccc(OC)c3OS(=O)(=O)c3ccc(Cl)cc3)C[C@@H]2N1C(=O)NCc1ccccc1 [compound 105]  1.27 ± 0.24 µM
34. C=CCN1CC(=O)N2[C@@H](Cc3ccc(O)cc3)C(=O)N(Cc3ccc(F)c4scnc34)C[C@@H]2N1C(=O)NCc1ccc(C)cc1 [compound 103]  1.26 ± 0.19 µM
35. C=CCN1CC(=O)N2[C@@H](Cc3ccc(O)cc3)C(=O)N(Cc3cccc(C(=O)NCC4CCCCC4)c3)C[C@@H]2N1C(=O)NCc1ccccc1 [compound 101]  1.24 ± 0.07 µM
36. C=CCN1CC(=O)N2[C@@H](Cc3ccc(O)cc3)C(=O)N(Cc3csc4ccc(NC(C)=O)cc34)C[C@@H]2N1C(=O)NCc1ccccc1 [compound 85]  1 ± 0.22 µM
37. C=CCN1CC(=O)N2[C@@H](Cc3ccc(O)cc3)C(=O)N(Cc3cccc(-c4cccc(N)c4)c3)C[C@@H]2N1C(=O)NCc1ccccc1 [compound 82]  0.99 ± 0.14 µM
38. C=CCN1CC(=O)N2[C@@H](Cc3ccc(O)cc3)C(=O)N(Cc3cccc(-c4ccccc4OC)n3)C[C@@H]2N1C(=O)NCc1ccccc1 [compound 81]  0.97 ± 0.18 µM
39. C=CCN1CC(=O)N2[C@@H](Cc3ccc(O)cc3)C(=O)N(Cc3ccccc3N)C[C@@H]2N1C(=O)NCc1ccccc1 [compound 78]  0.95 ± 0.15 µM
40. C=CCN1CC(=O)N2[C@@H](Cc3ccc(O)cc3)C(=O)N(Cc3cccc(-c4ccc(N5CCOCC5)nc4)c3)C[C@@H]2N1C(=O)NCc1ccccc1 [compound 62]  0.81 ± 0.15 µM
41. C=CCN1CC(=O)N2[C@@H](Cc3ccc(O)cc3)C(=O)N(Cc3csc4cc(NCCC(C)(C)C)ccc34)C[C@@H]2N1C(=O)NCc1ccccc1 [compound 51]  0.72 ± 0.15 µM
42. C=CCN1CC(=O)N2[C@@H](Cc3ccc(O)cc3)C(=O)N(Cc3cccc(-c4ccc(N)nc4)c3)C[C@@H]2N1C(=O)NCc1ccccc1 [compound 40]  0.63 ± 0.06 µM
43. C=CCN1CC(=O)N2[C@@H](Cc3ccc(O)cc3)C(=O)N(Cc3ccc(F)c4scnc34)C[C@@H]2N1C(=O)NCc1ccc(Cl)c(Cl)c1 [compound 41]  0.63 ± 0.09 µM
44. C=CCN1CC(=O)N2[C@@H](Cc3ccc(O)cc3)C(=O)N(Cc3cccc4c3ncn4C(=O)CN)C[C@@H]2N1C(=O)NCc1ccccc1 [compound 37]  0.6 ± 0.13 µM
45. C=CCN1CC(=O)N2[C@@H](Cc3ccc(O)cc3)C(=O)N(Cc3cccc(-c4ccc(F)nc4)c3)C[C@@H]2N1C(=O)NCc1ccccc1 [compound 33]  0.56 ± 0.44 µM
46. C=CCN1CC(=O)N2[C@@H](Cc3ccc(O)cc3)C(=O)N(Cc3ccccc3[N+](=O)[O-])C[C@@H]2N1C(=O)NCc1ccccc1 [compound 30]  0.54 ± 0.06 µM
47. C=CCN1CC(=O)N2[C@@H](Cc3ccc(O)cc3)C(=O)N(Cc3cccc4c3oc3ccccc34)C[C@@H]2N1C(=O)NCc1ccccc1 [compound 26]  0.52 ± 0.048 µM
48. C=CCN1CC(=O)N2[C@@H](Cc3ccc(O)cc3)C(=O)N(Cc3cccc(C(=O)NCC4CC4)c3)C[C@@H]2N1C(=O)NCc1ccccc1 [compound 25]  0.52 ± 0.04 µM
49. C=CCN1CC(=O)N2[C@@H](Cc3ccc(O)cc3)C(=O)N(Cc3cccc4ccn(S(=O)(=O)c5ccc(Cl)cc5)c34)C[C@@H]2N1C(=O)NCc1ccccc1 [compound 20]  0.43 ± 0.1 µM
50. C=CCN1CC(=O)N2[C@@H](Cc3ccc(O)cc3)C(=O)N(Cc3cccc4c(C#N)cn(S(=O)(=O)c5ccccc5)c34)C[C@@H]2N1C(=O)NCc1ccccc1 [compound 11]  0.31 ± 0.09 µM
51. C=CCN1CC(=O)N2[C@@H](Cc3ccc(O)cc3)C(=O)N(Cc3cccc4c(C(C)=O)cn(S(=O)(=O)c5ccc(Cl)cc5)c34)C[C@@H]2N1C(=O)NCc1ccccc1 [compound 6]  0.18 ± 0.076 µM
52. C=CCN1CC(=O)N2[C@@H](Cc3ccc(O)cc3)C(=O)N(Cc3cccc4c(C(=O)C5CC5)c[nH]c34)C[C@@H]2N1C(=O)NCc1ccccc1 [compound 4]  0.14 ± 0.025 µM

Same assay, conditions: Homo sapiens, SW480; read-out: RGA, IC50 (μM) TopF

In order of falling IC50:
1. C=CCN1CC(=O)N2[C@@H](Cc3ccc(O)cc3)C(=O)N(Cc3csc4ccc(NS(C)(=O)=O)cc34)C[C@@H]2N1C(=O)NCc1ccccc1 [compound 246]  6.59 ± 0.86 µM
2. C=CCN1CC(=O)N2[C@@H](Cc3ccc(OP(=O)(O)O)cc3)C(=O)N(Cc3ccc(OC)cc3F)C[C@@H]2N1C(=O)NCc1ccccc1 [compound 216]  3.8 ± 1.1 µM

Same assay, conditions: TopFlash reporter gene assay, inhibition of Wnt signaling; read-out: RGA, IC50 (μM) TopF

With C=CCN1CC(=O)N2[C@@H](Cc3ccc(O)cc3)C(=O)N(Cc3csc4cc(NCc5ccccc5)ccc34)C[C@@H]2N1C(=O)NCc1ccccc1 [compound 138] the IC50 was 1.86 ± 0.38 µM.
